Key:
Conditions in all cases: Compound concentration 1000.0 nM
[1] = target: Citron Rho-interacting kinase (Homo sapiens) (UniProt O14578)
[2] = target: Dual serine/threonine and tyrosine protein kinase (Homo sapiens) (UniProt Q6XUX3)
[3] = target: T1, Dual specificity mitogen-activated protein kinase kinase 6 (Homo sapiens) (UniProt P52564)
T1 sequence (whole entry): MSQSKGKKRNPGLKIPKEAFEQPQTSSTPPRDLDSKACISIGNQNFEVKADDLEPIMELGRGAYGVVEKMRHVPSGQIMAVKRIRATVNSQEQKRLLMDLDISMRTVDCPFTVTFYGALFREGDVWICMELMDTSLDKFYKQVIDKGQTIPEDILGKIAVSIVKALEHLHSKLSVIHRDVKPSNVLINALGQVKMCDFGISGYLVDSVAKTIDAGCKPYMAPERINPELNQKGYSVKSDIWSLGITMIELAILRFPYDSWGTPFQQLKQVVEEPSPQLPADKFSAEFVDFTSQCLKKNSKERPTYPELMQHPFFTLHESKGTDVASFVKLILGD

[4] = target: T2, Muscle, skeletal receptor tyrosine-protein kinase (Homo sapiens) (UniProt O15146)
T2 sequence (whole entry): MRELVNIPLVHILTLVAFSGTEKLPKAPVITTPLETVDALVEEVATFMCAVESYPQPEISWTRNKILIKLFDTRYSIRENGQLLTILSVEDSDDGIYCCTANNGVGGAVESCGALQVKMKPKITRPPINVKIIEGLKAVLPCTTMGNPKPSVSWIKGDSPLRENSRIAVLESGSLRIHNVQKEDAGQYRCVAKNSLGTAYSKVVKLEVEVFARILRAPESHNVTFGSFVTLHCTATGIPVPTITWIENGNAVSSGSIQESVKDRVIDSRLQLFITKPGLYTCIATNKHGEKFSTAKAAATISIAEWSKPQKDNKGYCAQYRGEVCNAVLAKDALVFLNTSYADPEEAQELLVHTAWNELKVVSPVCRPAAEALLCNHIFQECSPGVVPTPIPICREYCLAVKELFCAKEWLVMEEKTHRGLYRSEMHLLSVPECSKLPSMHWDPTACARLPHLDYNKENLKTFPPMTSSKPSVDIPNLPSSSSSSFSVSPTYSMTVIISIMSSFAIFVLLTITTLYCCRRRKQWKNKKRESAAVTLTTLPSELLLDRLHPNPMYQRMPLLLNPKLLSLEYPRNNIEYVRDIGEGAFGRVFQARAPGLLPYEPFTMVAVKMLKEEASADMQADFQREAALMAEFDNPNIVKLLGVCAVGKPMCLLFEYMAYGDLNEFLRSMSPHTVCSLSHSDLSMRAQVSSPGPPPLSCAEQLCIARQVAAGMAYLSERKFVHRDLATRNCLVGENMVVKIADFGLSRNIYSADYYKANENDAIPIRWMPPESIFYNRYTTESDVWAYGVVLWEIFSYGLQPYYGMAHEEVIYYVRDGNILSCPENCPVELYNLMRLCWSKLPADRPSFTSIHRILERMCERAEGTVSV

[5] = target: Receptor-type tyrosine-protein kinase FLT3 (Homo sapiens) (UniProt P36888)
[6] = target: Receptor tyrosine-protein kinase erbB-3 (Homo sapiens) (UniProt P21860)
[7] = target: T3, Bone morphogenetic protein receptor type-2 (Homo sapiens) (UniProt Q13873)
T3 sequence (whole entry): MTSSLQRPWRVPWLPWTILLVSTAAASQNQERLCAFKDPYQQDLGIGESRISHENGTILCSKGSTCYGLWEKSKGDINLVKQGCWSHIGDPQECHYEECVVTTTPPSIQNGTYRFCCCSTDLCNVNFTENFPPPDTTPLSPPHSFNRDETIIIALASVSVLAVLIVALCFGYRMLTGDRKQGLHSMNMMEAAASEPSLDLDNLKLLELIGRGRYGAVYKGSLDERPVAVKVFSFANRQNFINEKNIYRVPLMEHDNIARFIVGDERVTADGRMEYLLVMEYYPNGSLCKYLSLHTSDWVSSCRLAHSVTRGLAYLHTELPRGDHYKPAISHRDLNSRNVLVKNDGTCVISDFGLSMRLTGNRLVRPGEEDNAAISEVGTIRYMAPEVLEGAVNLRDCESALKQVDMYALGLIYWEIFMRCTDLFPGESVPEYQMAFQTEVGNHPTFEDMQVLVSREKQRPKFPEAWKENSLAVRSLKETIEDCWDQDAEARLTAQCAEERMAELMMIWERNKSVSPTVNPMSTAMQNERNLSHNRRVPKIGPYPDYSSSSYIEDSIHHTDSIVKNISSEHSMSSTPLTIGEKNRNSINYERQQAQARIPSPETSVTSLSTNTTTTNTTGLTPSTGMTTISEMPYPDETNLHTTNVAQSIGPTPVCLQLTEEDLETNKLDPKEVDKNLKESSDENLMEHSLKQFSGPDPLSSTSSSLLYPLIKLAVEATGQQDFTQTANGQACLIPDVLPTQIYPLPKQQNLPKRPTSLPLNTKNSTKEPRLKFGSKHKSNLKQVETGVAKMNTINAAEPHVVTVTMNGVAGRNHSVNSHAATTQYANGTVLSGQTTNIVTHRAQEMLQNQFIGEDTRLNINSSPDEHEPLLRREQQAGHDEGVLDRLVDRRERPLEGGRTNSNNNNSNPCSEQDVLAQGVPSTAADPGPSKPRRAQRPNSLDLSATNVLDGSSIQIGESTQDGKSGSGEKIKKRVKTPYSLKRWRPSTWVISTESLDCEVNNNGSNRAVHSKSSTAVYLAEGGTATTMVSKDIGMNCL

[8] = target: Homeodomain-interacting protein kinase 2 (Homo sapiens) (UniProt Q9H2X6)
[9] = system: Phosphatidylinositol 4,5-bisphosphate 3-kinase catalytic subunit alpha isoform (Homo sapiens), P42336 [E545K]
[10] = target: Homeodomain-interacting protein kinase 3 (Homo sapiens) (UniProt Q9H422)
[11] = system: Receptor-type tyrosine-protein kinase FLT3 (Homo sapiens), P36888 [R834Q]
[12] = target: Mitogen-activated protein kinase kinase kinase kinase 2 (Homo sapiens) (UniProt Q12851)

Measured: residual activity

Mitogen-activated protein kinase kinase kinase kinase 2 (Homo sapiens), sequence (Q12851 whole entry): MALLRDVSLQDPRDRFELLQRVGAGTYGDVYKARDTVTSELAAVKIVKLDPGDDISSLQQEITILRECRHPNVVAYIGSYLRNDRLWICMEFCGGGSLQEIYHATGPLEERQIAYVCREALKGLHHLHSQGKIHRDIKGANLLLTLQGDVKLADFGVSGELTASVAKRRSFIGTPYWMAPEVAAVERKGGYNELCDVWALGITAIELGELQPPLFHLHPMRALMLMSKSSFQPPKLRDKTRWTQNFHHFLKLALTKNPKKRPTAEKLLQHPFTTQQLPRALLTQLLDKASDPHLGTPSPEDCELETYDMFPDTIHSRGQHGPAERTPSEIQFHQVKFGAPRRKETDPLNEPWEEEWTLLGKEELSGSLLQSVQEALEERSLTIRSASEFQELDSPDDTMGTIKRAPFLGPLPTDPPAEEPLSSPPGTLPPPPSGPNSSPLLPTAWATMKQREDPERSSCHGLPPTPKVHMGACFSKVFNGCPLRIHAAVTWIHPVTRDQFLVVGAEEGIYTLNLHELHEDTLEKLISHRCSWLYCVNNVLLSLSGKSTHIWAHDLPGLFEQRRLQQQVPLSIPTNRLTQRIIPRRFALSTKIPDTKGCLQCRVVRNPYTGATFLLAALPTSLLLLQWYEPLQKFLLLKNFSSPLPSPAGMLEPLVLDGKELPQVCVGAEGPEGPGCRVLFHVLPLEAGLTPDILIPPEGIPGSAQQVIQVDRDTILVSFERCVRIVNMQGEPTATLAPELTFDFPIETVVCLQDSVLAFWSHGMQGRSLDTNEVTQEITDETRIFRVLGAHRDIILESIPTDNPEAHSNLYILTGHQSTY
Dual serine/threonine and tyrosine protein kinase (Homo sapiens), sequence (Q6XUX3 whole entry): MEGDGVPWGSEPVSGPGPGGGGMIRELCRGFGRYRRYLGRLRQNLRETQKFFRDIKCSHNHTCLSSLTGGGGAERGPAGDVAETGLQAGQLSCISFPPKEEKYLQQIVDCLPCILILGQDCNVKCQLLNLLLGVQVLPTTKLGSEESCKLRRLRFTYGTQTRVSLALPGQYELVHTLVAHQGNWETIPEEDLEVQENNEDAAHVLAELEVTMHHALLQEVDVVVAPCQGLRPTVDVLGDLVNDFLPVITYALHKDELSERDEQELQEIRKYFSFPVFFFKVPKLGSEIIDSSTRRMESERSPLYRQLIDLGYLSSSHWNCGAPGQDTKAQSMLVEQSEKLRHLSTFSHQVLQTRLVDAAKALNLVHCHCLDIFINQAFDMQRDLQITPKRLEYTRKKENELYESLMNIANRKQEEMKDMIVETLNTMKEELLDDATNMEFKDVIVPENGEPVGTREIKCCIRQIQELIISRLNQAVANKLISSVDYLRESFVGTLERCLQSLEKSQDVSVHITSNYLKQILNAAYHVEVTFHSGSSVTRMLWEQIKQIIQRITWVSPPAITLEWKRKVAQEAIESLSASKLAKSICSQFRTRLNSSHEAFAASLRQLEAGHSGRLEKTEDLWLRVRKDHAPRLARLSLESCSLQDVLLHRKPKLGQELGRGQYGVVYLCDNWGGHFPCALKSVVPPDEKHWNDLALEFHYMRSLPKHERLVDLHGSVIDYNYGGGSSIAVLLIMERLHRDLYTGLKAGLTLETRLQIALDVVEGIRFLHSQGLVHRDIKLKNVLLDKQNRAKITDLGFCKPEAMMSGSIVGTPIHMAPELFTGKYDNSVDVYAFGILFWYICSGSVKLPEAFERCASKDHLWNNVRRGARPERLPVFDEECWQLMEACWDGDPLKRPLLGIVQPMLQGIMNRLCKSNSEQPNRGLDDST
Receptor tyrosine-protein kinase erbB-3 (Homo sapiens), sequence (P21860 whole entry): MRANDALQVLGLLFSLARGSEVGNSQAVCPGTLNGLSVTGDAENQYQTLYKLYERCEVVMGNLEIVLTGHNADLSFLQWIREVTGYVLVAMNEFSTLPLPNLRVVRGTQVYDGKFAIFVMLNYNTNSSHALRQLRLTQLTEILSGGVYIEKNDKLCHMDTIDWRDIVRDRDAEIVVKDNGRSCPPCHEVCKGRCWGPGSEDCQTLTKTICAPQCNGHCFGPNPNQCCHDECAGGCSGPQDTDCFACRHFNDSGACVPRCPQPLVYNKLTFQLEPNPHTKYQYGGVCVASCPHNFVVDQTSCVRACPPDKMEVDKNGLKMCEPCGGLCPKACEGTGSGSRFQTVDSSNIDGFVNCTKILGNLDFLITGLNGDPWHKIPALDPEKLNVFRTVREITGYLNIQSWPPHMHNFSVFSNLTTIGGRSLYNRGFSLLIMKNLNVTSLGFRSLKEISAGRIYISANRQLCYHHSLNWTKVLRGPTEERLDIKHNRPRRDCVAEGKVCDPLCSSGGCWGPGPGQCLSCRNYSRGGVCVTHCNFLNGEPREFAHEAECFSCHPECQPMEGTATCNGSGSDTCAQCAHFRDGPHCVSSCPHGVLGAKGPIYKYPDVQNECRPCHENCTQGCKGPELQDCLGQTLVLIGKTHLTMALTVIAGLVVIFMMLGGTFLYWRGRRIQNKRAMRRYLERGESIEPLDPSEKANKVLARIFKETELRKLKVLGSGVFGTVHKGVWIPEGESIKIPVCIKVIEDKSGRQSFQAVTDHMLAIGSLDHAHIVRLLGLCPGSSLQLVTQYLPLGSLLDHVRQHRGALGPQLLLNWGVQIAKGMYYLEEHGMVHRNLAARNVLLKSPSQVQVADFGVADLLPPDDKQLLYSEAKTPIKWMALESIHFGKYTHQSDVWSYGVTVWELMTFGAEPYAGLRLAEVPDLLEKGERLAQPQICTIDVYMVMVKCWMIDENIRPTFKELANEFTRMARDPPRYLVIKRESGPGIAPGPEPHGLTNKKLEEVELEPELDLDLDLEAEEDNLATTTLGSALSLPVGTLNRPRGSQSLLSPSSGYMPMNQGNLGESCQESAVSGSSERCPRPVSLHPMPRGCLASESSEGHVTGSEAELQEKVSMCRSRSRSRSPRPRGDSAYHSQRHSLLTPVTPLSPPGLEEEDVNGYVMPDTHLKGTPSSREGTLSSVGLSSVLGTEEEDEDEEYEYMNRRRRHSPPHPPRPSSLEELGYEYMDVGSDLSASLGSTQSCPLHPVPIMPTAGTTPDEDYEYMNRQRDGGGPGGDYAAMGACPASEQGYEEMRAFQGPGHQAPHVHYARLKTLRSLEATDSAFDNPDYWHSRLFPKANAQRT
Citron Rho-interacting kinase (Homo sapiens), sequence (O14578 whole entry): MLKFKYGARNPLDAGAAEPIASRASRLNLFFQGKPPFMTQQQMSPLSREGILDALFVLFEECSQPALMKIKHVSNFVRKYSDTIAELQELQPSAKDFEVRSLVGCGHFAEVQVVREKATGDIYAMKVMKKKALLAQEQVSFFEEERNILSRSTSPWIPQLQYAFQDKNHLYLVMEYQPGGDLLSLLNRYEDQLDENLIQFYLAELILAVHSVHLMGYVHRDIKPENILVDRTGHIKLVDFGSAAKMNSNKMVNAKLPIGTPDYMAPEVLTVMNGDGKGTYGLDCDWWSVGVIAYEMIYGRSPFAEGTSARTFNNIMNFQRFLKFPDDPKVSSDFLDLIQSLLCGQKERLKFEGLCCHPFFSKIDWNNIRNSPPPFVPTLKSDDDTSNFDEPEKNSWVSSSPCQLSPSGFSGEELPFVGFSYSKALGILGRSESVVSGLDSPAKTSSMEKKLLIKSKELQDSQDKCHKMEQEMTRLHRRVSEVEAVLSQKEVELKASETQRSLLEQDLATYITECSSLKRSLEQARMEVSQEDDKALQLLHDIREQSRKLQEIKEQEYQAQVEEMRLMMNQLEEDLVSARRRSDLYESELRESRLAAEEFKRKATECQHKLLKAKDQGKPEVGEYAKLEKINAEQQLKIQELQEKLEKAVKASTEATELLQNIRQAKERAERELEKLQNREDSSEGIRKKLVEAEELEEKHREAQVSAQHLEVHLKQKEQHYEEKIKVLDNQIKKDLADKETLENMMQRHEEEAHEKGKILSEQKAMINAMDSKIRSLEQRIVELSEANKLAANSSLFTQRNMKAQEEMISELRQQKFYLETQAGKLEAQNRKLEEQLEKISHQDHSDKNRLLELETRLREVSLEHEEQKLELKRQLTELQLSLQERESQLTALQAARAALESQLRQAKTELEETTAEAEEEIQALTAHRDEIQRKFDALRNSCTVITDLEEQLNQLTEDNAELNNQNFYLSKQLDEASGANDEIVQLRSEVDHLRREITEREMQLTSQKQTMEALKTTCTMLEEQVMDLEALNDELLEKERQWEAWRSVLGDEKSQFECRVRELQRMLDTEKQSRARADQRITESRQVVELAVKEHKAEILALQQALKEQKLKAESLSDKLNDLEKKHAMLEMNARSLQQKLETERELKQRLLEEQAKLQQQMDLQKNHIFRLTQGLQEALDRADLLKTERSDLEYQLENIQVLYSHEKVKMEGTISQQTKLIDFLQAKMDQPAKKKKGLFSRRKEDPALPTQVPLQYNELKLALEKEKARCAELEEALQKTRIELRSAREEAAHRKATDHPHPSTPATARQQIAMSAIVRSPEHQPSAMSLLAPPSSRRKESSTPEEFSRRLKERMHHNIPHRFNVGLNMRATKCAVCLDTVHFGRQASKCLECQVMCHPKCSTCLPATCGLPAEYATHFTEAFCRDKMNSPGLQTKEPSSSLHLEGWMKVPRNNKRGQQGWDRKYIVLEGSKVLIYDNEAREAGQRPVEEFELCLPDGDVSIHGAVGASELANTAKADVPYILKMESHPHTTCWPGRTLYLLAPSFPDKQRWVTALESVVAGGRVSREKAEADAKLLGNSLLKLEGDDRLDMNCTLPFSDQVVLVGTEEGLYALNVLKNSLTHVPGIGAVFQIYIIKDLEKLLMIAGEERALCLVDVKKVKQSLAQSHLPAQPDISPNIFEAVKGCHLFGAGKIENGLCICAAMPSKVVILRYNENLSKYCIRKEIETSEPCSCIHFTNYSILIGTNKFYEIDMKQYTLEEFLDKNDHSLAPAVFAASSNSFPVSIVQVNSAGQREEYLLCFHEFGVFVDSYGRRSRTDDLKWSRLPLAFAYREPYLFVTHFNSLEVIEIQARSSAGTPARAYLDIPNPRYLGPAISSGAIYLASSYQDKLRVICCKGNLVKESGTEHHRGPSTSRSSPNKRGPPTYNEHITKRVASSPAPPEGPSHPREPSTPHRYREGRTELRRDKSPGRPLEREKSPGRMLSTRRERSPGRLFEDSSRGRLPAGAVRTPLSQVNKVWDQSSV

Cc1nc(C2CCN(C(=O)c3ccc(OC(F)(F)F)cc3N)CC2)c2ncc(N3CCN(C)CC3)cc2n1 [BAY-693]
inactive: [1] 100% | [2] 95% | [3] 97% | [4] 100% | [5] 100% | [6] 88% | [7] 100% | [8] 93% | [9] 85% | [10] 96% | [11] 100% | [12] 80%

CN1CCN(c2cnc3c(C4CCN(C(=O)c5ccc(OC(F)(F)F)cc5N)CC4)ncnc3c2)CC1 [BAY-885]
inactive: [1] 100% | [2] 100% | [3] 88% | [4] 100% | [5] 97% | [6] 84% | [7] 100% | [8] 100% | [9] 100% | [10] 100% | [11] 100% | [12] 82%
